Measured values from ChEMBL document CHEMBL1155604, “New norditerpenoid alkaloids from Aconitum falconeri” (J Nat Prod, 2000).
Active and inactive are the calls of the source. The calls are words filed in the database; no cut-off is given here.

Columns and labels:
Electrophorus electricus = experiment: (§1) Inhibition of electric eel acetylcholinesterase type VI-S after 30 mins by modified Ellman's assay
[1] = as §1; set-up: species or system Electrophorus electricus

Compound | Activity (Electrophorus electricus) | IC50 [1] [µM]
CCO[C@]12C[C@H](OC)[C@@]3(O)C[C@H]([C@@H]1[C@H]3OC(=O)c1ccc(OC)c(OC)c1)[C@@]13C4[C@@H]2[C@H](OC)[C@@H]1[C@](COC)(CN4CC)[C@H](O)C[C@@H]3OC | inactive | –
COC[C@]12CN(C=O)C3[C@@H]4[C@H](OC)[C@H]1[C@@]3([C@@H](OC)C[C@H]2O)[C@@H]1C[C@]2(O)[C@@H](OC)C[C@@]4(OC(C)=O)[C@H]1[C@H]2OC(=O)c1ccc(OC)c(OC)c1 [FALEOCONITINE] | – | 293
CCN1C[C@]2(COC)[C@H](O)C[C@H](OC)[C@]34C1[C@H]([C@H](OC)[C@H]23)[C@@]1(OC(C)=O)C[C@H](OC)[C@@]2(O)C[C@@H]4[C@@H]1[C@H]2OC(=O)c1ccc(OC)c(OC)c1 [PSEUDACONITINE] | – | 278
